Assay results published in US9856220B2 (AbbVie Deutschland GmbH & Co. KG, priority 2011, dated 2018).
pIC50: −log10 of the molar value.

Assays:
[1] = Determination of the microsomal half-life / microsomal clearance, human liver microsomes; format: in vitro ADME; conditions: 0.5 μM test substance, 0.25 mg of microsomal protein/ml, pH 7.4, 37° C.
Method: (§1) b) Determination of the Microsomal Half-Life:
(§2) The metabolic stability of the compounds of the invention was determined in the following assay.
(§3) The test substances were incubated in a concentration of 0.5 μM as follows:
(§4) 0.5 μM test substance are preincubated together with liver microsomes from different species (from rat, human or other species) (0.25 mg of microsomal protein/ml) in 0.05 M potassium phosphate buffer of pH 7.4 in microtiter plates at 37° C. for 5 min. The reaction is started by adding NADPH (1 mg/mL). After 0, 5, 10, 15, 20 and 30 min, 50 μl aliquots are removed, and the reaction is immediately stopped and cooled with the same volume of acetonitrile. The samples are frozen until analyzed. The remaining concentration of undegraded test substance is determined by MSMS. The half-life (T½) is determined from the gradient of the signal of test substance/unit time plot, it being possible to calculate the half-life of the test substance, assuming first order kinetics, from the decrease in the concentration of the compound with time. The microsomal clearance (mCl) is calculated from mCl=ln 2/T½/(content of microsomal protein in mg/ml)×1000 [ml/min/mg]

PDE10A = PDE10A (Homo sapiens (Human), UniProt Q9Y233); test: Measurement of PDE activity (recombinant PDE, cAMP HTRF); format: biochemical; conditions: 20 nM cyclic nucleotide substrate, 60 minutes at 29 C
Sequence of PDE10A (Q9Y233 whole entry, species assumed): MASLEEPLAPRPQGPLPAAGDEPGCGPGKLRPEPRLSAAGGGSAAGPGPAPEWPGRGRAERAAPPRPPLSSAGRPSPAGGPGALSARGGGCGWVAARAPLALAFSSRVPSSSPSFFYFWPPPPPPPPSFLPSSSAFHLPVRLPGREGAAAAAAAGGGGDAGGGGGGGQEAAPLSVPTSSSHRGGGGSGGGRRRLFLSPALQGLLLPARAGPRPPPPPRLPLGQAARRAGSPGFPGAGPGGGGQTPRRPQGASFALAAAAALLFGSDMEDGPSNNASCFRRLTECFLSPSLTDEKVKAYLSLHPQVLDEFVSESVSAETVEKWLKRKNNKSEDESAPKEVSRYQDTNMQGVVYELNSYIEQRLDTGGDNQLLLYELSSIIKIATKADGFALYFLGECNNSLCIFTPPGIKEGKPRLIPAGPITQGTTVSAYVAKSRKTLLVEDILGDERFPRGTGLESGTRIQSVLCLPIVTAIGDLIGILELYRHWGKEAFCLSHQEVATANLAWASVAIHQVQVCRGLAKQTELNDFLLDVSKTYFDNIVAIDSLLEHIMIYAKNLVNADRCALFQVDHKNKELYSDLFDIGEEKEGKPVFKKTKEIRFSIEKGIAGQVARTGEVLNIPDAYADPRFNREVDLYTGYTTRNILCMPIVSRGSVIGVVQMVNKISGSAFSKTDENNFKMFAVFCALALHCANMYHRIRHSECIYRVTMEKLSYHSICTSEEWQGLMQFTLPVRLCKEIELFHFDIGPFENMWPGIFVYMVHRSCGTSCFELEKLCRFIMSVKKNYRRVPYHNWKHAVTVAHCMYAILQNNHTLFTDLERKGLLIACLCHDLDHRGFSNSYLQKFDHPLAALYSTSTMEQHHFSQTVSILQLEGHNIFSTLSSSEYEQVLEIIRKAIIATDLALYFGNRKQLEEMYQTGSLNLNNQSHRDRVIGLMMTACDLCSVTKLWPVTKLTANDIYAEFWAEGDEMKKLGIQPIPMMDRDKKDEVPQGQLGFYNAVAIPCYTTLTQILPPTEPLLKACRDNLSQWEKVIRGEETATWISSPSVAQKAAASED
How it was run: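 Recombinant human PDE10A in 20 mM Tris-HCl pH 7.5, 10 mM MgCl2, 0.1% BSA with 20 nM cyclic nucleotide substrate; reaction 60 min at 29 C after compound preincubation with enzyme. Residual cAMP detected by HTRF (cAMP-d2/anti-cAMP cryptate); IC50 from inhibitor concentration versus PDE activity.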

[2] = Determination of the microsomal half-life / microsomal clearance, rat liver microsomes; format: in vitro ADME; conditions: 0.5 μM test substance, 0.25 mg of microsomal protein/ml, pH 7.4, 37° C.
Method: as §1, §2, §3, §4

Human mCl [1]	pIC50 (PDE10A)	Rat mCl [2]	SMILES
++ (<100 μl min^−1 mg^−1)	6.30 to 6.70	++ (<100 μl min^−1 mg^−1)	CCC(CC)n1cc(C(=O)NC2CCc3ncccc32)c2cc(OC)c(OC)cc2c1=O (single isomer, unassigned; (+)) [Example 199, (+)-2-(1-Ethyl-propyl)-6,7-dimethoxy-1-oxo-1,2-dihydro-isoquinoline-4-carboxylic acid (6,7-dihydro-5H-[1]pyrindin-5-yl)-amide]
++ (<100 μl min^−1 mg^−1)	6.30 to 6.70	++ (<100 μl min^−1 mg^−1)	CCC(CC)n1cc(C(=O)NCc2cc(C)on2)c2cc(OC)c(OC)cc2c1=O [Example 244, 6,7-Dimethoxy-N-((5-methylisoxazol-3-yl)methyl)-1-oxo-2-(pentan-3-yl)-1,2-dihydroisoquinoline-4-carboxamide]
∘ (>220 μl min^−1 mg^−1)	> 7.00	+ (100-220 μl min^−1 mg^−1)	CCC(CC)n1cc(C(=O)N[C@H]2CCc3ccccc32)c2cc(OC)c(OC)cc2c1=O [Example 192, 2-(1-Ethyl-propyl)-6,7-dimethoxy-1-oxo-1,2-dihydro-isoquinoline-4-carboxylic acid (S)-indan-1-ylamide]
+ (100-220 μl min^−1 mg^−1)	6.70 to 7.00	∘ (>220 μl min^−1 mg^−1)	CCC(CC)n1cc(C(=O)NCc2ccc(C)o2)c2cc(OC)c(OC)cc2c1=O [Example 251, 6,7-Dimethoxy-N-((5-methylfuran-2-yl)methyl)-1-oxo-2-(pentan-3-yl)-1,2-dihydroisoquinoline-4-carboxamide]
+ (100-220 μl min^−1 mg^−1)		++ (<100 μl min^−1 mg^−1)	CCn1cc(C(=O)NCc2ccc(C(C)C)cc2)c2cc(OC)c(OC)cc2c1=O [Example 312, 2-Ethyl-N-[(4-isopropylphenyl)methyl]-6,7-dimethoxy-1-oxo-isoquinoline-4-carboxamide]
∘ (>220 μl min^−1 mg^−1)	6.70 to 7.00	+ (100-220 μl min^−1 mg^−1)	CCC(CC)n1cc(C(=O)N[C@@H](C)c2ccc(F)cc2)c2cc(OC)c(OC)cc2c1=O [Example 246, (S)—N-(1-(4-fluorophenyl)ethyl)-6,7-dimethoxy-1-oxo-2-(pentan-3-yl)-1,2-dihydroisoquinoline-4-carboxamide]
++ (<100 μl min^−1 mg^−1)	6.70 to 7.00	+ (100-220 μl min^−1 mg^−1)	CCC(CC)n1cc(C(=O)NCc2c(C)noc2C)c2cc(OC)c(OC)cc2c1=O [Example 238, N-((3,5-Dimethylisoxazol-4-yl)methyl)-6,7-dimethoxy-1-oxo-2-(pentan-3-yl)-1,2-dihydroisoquinoline-4-carboxamide]
++ (<100 μl min^−1 mg^−1)	6.70 to 7.00	+ (100-220 μl min^−1 mg^−1)	CCC(CC)n1cc(C(=O)NCc2cc(C)no2)c2cc(OC)c(OC)cc2c1=O [Example 241, 6,7-Dimethoxy-N-((3-methylisoxazol-5-yl)methyl)-1-oxo-2-(pentan-3-yl)-1,2-dihydroisoquinoline-4-carboxamide]
++ (<100 μl min^−1 mg^−1)	> 7.00	++ (<100 μl min^−1 mg^−1)	CCn1cc(C(=O)NCc2ccc(C)cc2)c2cc(OC)c(OC)cc2c1=O [Example 161, 2-Ethyl-6,7-dimethoxy-N-(4-methylbenzyl)-1-oxo-1,2-dihydroisoquinoline-4-carboxamide]
++ (<100 μl min^−1 mg^−1)	6.70 to 7.00	+ (100-220 μl min^−1 mg^−1)	CCn1cc(C(=O)NCc2cc(C)cs2)c2cc(OC)c(OC)cc2c1=O [Example 317, 2-Ethyl-6,7-dimethoxy-N-[(4-methyl-2-thienyl)methyl]-1-oxo-isoquinoline-4-carboxamide]
+ (100-220 μl min^−1 mg^−1)	6.70 to 7.00	++ (<100 μl min^−1 mg^−1)	CCC(CC)n1cc(C(=O)NCc2cccnc2)c2cc(OC)c(OC)cc2c1=O [Example 236, 6,7-Dimethoxy-1-oxo-2-(pentan-3-yl)-N-(pyridin-3-ylmethyl)-1,2-dihydroisoquinoline-4-carboxamide]
++ (<100 μl min^−1 mg^−1)		++ (<100 μl min^−1 mg^−1)	COc1cc2c(C(=O)NC3CCc4ccccc43)cn(C3CC3)c(=O)c2cc1OC (centres unmarked) [Example 196, 2-Cyclopropyl-6,7-dimethoxy-1-oxo-1,2-dihydro-isoquinoline-4-carboxylic acid indan-1-ylamide]
+ (100-220 μl min^−1 mg^−1)		++ (<100 μl min^−1 mg^−1)	CCn1cc(C(=O)NC2CCc3sccc32)c2cc(OC)c(OC)cc2c1=O (single isomer, unassigned; (+)) [Example 204, (+)-2-Ethyl-6,7-dimethoxy-1-oxo-1,2-dihydro-isoquinoline-4-carboxylic acid (5,6-dihydro-4H-cyclopenta[b]thiophen-4-yl)-amide]
++ (<100 μl min^−1 mg^−1)		++ (<100 μl min^−1 mg^−1)	CCn1cc(C(=O)NCc2ccc(C(F)F)cc2)c2cc(OC)c(OC)cc2c1=O [Example 315, N-[[4-(Difluoromethyl)phenyl]methyl]-2-ethyl-6,7-dimethoxy-1-oxo-isoquinoline-4-carboxamide]
++ (<100 μl min^−1 mg^−1)		++ (<100 μl min^−1 mg^−1)	CCn1cc(C(=O)NCc2ccc(C(F)(F)F)cc2)c2cc(OC)c(OC)cc2c1=O [Example 310, 2-Ethyl-6,7-dimethoxy-1-oxo-N-[[4-(trifluoromethyl)phenyl]-methyl]isoquinoline-4-carboxamide]
++ (<100 μl min^−1 mg^−1)	6.30 to 6.70		CCn1cc(C(=O)NCc2cscn2)c2cc(OC)c(OC)cc2c1=O [Example 309, 2-Ethyl-6,7-dimethoxy-1-oxo-N-(thiazol-4-ylmethyl)isoquinoline-4-carboxamide]
++ (<100 μl min^−1 mg^−1)		++ (<100 μl min^−1 mg^−1)	CCC(CC)n1cc(C(=O)NCc2cscn2)c2cc(OC)c(OC)cc2c1=O [Example 203, 2-(1-Ethyl-propyl)-6,7-dimethoxy-1-oxo-1,2-dihydro-isoquinoline-4-carboxylic acid (thiazol-4-ylmethyl)-amide]
	6.30 to 6.70		CCn1cc(C(=O)NCc2ccccn2)c2cc(OC)c(OC)cc2c1=O [Example 149, 2-Ethyl-6,7-dimethoxy-1-oxo-N-(pyridin-2-ylmethyl)-1,2-dihydroisoquinoline-4-carboxamide]
	6.30 to 6.70		CCn1cc(C(=O)NCc2ccc(OC)cc2)c2cc(OC)c(OC)cc2c1=O [Example 152, 2-Ethyl-6,7-dimethoxy-N-(4-methoxybenzyl)-1-oxo-1,2-dihydroisoquinoline-4-carboxamide]
	6.30 to 6.70		CCn1cc(C(=O)NC2CCc3ccc(OC)cc32)c2cc(OC)c(OC)cc2c1=O (centres unmarked) [Example 176, 2-Ethyl-6,7-dimethoxy-N-(6-methoxy-2,3-dihydro-1H-inden-1-yl)-1-oxo-1,2-dihydroisoquinoline-4-carboxamide]
	6.70 to 7.00		CCn1cc(C(=O)NCc2ccccc2C)c2cc(OC)c(OC)cc2c1=O [Example 154, 2-Ethyl-6,7-dimethoxy-N-(2-methylbenzyl)-1-oxo-1,2-dihydroisoquinoline-4-carboxamide]
	6.30 to 6.70		CCn1cc(C(=O)NC(C)c2ccccc2)c2cc(OC)c(OC)cc2c1=O (centres unmarked) [Example 29, 2-Ethyl-6,7-dimethoxy-1-oxo-1,2-dihydro-isoquinoline-4-carboxylic acid (1-phenyl-ethyl)-amide]
	6.30 to 6.70		CCn1cc(C(=O)NC2CCc3c(C)cccc32)c2cc(OC)c(OC)cc2c1=O (centres unmarked) [Example 174, 2-Ethyl-6,7-dimethoxy-N-(4-methyl-2,3-dihydro-1H-inden-1-yl)-1-oxo-1,2-dihydroisoquinoline-4-carboxamide]
	6.70 to 7.00		CCC(CC)n1cc(C(=O)NCc2ccc(C)cc2)c2cc(OC)c(OC)cc2c1=O [Example 262, 6,7-Dimethoxy-N-(4-methylbenzyl)-1-oxo-2-(pentan-3-yl)-1,2-dihydroisoquinoline-4-carboxamide]
	6.30 to 6.70		CCn1cc(C(=O)NC2CCc3ccc(C)cc32)c2cc(OC)c(OC)cc2c1=O (centres unmarked) [Example 167, 2-Ethyl-6,7-dimethoxy-N-(6-methyl-2,3-dihydro-1H-inden-1-yl)-1-oxo-1,2-dihydroisoquinoline-4-carboxamide]

SMILES	Human mCl [1]	pIC50 (PDE10A)	Rat mCl [2]
CCn1cc(C(=O)N[C@H](C)c2ccc(C)cc2)c2cc(OC)c(OC)cc2c1=O [Example 314, 2-Ethyl-6,7-dimethoxy-1-oxo-N-[(1R)-1-(p-tolyl)ethyl]isoquinoline-4-carboxamide]	++ (<100 μl min^−1 mg^−1)		++ (<100 μl min^−1 mg^−1)
CCn1cc(C(=O)N[C@@H](C)c2ccc(C)cc2)c2cc(OC)c(OC)cc2c1=O [Example 311, 2-Ethyl-6,7-dimethoxy-1-oxo-N-[(1S)-1-(p-tolyl)ethyl]isoquinoline-4-carboxamide]	++ (<100 μl min^−1 mg^−1)	6.30 to 6.70	
